Measured values from a melting point compilation (Tetko et al.; mined from patent text by program, amines drawn as free bases though some values may be those of a salt).

melting point [°C]	SMILES
111 to 114	CN(C)S(=O)(=O)n1cc(-c2ccccc2[N+](=O)[O-])nc1C#N
93.5 to 94.5	Cc1cc(-c2ccc(OC(C)C(O)CCc3cccnc3)cc2)ccc1C#N (centres undefined)
102	CCN(CC)C(=O)c1nc(-c2cccc3ccccc23)no1
86 to 87	N#CCc1cn(Cc2ccc(OCc3ccccc3)cc2)nc1-c1ccc(F)cc1
94	CCCCCCCCc1ccc(-c2ccc(COc3ccc(OCC(C)OC(=O)OCCCC)cc3)cc2)cc1 (centres undefined)
> 250	Cc1ccc(-n2c(=O)c(N)nc3cccnc32)cc1
188	Nc1ccccc1Oc1cc(-c2ccc(C(F)(F)F)cc2)ncn1
81 to 84.5	COC(=O)CCSSN=C1C(=O)N(C)C(=O)N1c1ccccc1F
132 to 138	CC(=O)N(c1ccccn1)c1ncc(Br)s1
103 to 104	COC(=O)CC[C@@H](NC(=O)[C@H](COCc1ccccc1)NC(=O)OC(C)(C)C)C(N)=O
45 to 46	Cc1cc(CCCCCOc2c(C)cc(-c3noc(C)n3)cc2C)on1
63 to 65	O=C1CCC(c2cc(F)c(Br)cc2F)C1 (centres undefined)
221 to 224	COc1nc(C)nc(NC(=O)NS(=O)(=O)c2ccccc2-c2cnn(C)c2)n1
133	Cn1nc(C(F)F)cc1O
143 to 145	O=C(OC(C(F)(F)F)C(F)(F)F)c1c2ccccc2nc2ccccc12
143 to 144	CCCCc1oc2ccccc2c1C(=O)Nc1ccc(-c2ccc(OCC#N)cc2)cc1
105 to 110	O=C(c1cc(N2CCOCC2)ccn1)N(O)Cc1ccccc1
126	CNC(=O)c1cccc(Br)c1
59 to 60	Cc1ccc2c(c1)CCN2c1ccccc1C#N
218 to 219	CC(C)(C(N)=O)c1ccc(C(=O)O)cc1
174 to 176	Cn1cnc(COc2nc3c(cc2-c2ccsc2)nnn3-c2ccccc2F)n1
120	COC(=O)c1cc(N)c(N(C)C(C)=O)c(N)c1
66 to 69	CCCCCCCCCCCCCCCC(=O)n1nnnc1C(F)(F)F
208 to 210	O=C(O)c1cnc2cc([N+](=O)[O-])ccc2n1

melting point [°C]	SMILES
113 to 116	CC(C)(C)OC(=O)Nc1ccc(C#Cc2ccc(F)cc2F)cc1N
144 to 145	COc1ccc(S(=O)(=O)N2C(=O)C(O[Si](C)(C)C)(c3ccccc3C(F)(F)F)c3cc(Cl)ccc32)c(OC)c1 (centres undefined)
207 to 208	COc1cc(OC)c(C(=O)C=CC(=O)O)cc1OC
153 to 169	Cc1c2n(c3ccccc13)C(=O)C(C(O)c1ncn(C(c3ccccc3)(c3ccccc3)c3ccccc3)c1C)CC2 (centres undefined)
251 to 253	CC(=O)Nc1cc(C2=NNC(=O)NC2C)ccc1Cl (centres undefined)
149 to 152	CC(C)(C)c1cccc2nc(C(F)(F)F)[nH]c12
127 to 129	CCOCCCOc1ccc(-c2ccc3c(c2)C=C(C(=O)OC)CCN3S(C)(=O)=O)cc1
225 to 236	O=C1Nc2ccccc2Cc2sccc21
163	O=c1c(Cl)c(Cl)cnn1[C@@H]1C[C@H](O)[C@@H](O)[C@H]1O (racemic)
154 to 156	CC(=O)Nc1cccc2c1CCN(C(C)=O)C2
103 to 104	Cc1cc(C)c(C(CO)c2ccccc2)c(O)c1C (centres undefined)
170 to 171	COc1cccc(N=C(NC#N)Oc2ccccc2)c1
180 to 182	O=Cc1ccc(-c2nnn[nH]2)cc1
219 to 222	COc1cccc2c1C[C@H]1C[C@@H](CN3CCC(NC(=O)C(c4ccccc4)c4ccccc4)CC3)CN(C)[C@@H]1C2
79 to 81	Nc1cc(Cl)cc(Cl)c1C(=O)NCc1cccc(F)c1
183 to 185	CCCCc1ncc(/C=C(\Cc2cccs2)C(N)=O)n1Cc1ccccc1[N+](=O)[O-]
196 to 200	CCNC(=O)N1Cc2c(-c3ccc(F)cc3)ncn2-c2ccccc21
150 to 152	COc1ccc(-c2cc(NC(=O)CCCCBr)n[nH]2)cc1
46	C#CC12CC3CC(C1)CC(C#C)(C3)C2
168 to 170	Nc1cccc(-n2c(=O)c(Cc3cccnc3)nc3cccnc32)c1
119 to 123	COc1cc(C(=O)N2Cc3ccc(C(=O)N(C)CC(O)CO)n3Cc3ccccc32)ccc1-c1ccccc1C(F)(F)F (centres undefined)
212	N#Cc1c(N2CCCCC2)cc(-c2ccc(Br)cc2)c2c1Cc1ccccc1-2
48 to 51	CCCc1c(OCCCCCCCC(=O)NCCCCc2cccnc2)ccc(C(C)=O)c1O
231 to 233	CC(C)Cn1cnc2c(N)nc3c(c21)CCCN3

melting point [°C]	SMILES
86 to 87	c1ccc(Sc2ccc[nH]2)cc1
218 to 221	CC(=O)Nc1cnc(Br)c(N)n1
139 to 140	COc1ccc(C2(O)OC(=O)C(c3cc(OC)c4c(c3)OCO4)=C2CC2CCCC2)cc1 (centres undefined)
55	Cc1ccccc1N=C(C#N)c1c(Cl)cccc1Cl
242 to 244	O=C1c2ccccc2C(=O)N1CCC(=O)N1c2ccccc2N(Cc2ccccc2)C(=O)[C@H]2CCC[C@H]21 (relative stereo)
102	CC(C)N(C(=O)CC(c1ccccc1)c1cc(Br)ccc1OCc1ccccc1)C(C)C (centres undefined)
84	Cc1ccc(S(=O)(=O)OCC2COc3cc(C)ccc3O2)cc1 (centres undefined)
117 to 120	O=C(NCCCCCCOC(=O)Oc1ccc([N+](=O)[O-])cc1)OC1CCN(C(=O)Oc2ccc(Oc3ccccc3)cc2)CC1
158 to 159	CCn1c(Oc2cccc(NC(=O)N(C)C)c2)nnc1[C@@H](C)NS(=O)(=O)c1ccc(Cl)c(Cl)c1
237 to 239	CCOC(=O)c1c(Cn2cnnc2)nc2cc3c(cc2c1-c1ccc(OC)c(OC)c1)OCCO3
149 to 151	CCC1(CCCCN2CCc3sccc3C2)C(=O)Nc2ccc(Br)cc21 (centres undefined)
152 to 153	CC(=O)Oc1ccc(-c2cnc(-c3ccccc3)nc2Cl)cc1OC(C)=O
182	CCn1c(=O)ccn(-c2ccc([N+](=O)[O-])cc2)c1=O
300	O=c1c2c(-c3ccc(F)cc3)n[nH]c2c2cccnc2n1-c1ccccc1
132	O=C(O)C(Oc1ccc(Cl)c(C(F)(F)F)c1)c1ccc(Cl)cc1 (centres undefined)
147 to 148	CC(=O)N(C(C)=O)c1ccc2c(c1)C(C(Cl)(Cl)Cl)OC(C(Cl)(Cl)Cl)O2 (centres undefined)
155 to 156	CCOc1nc2c(C)sc(C(=O)OC)c2n1Cc1ccc(-c2ccccc2C#N)cc1
141 to 142	CC(C(=O)O)c1cc(F)c([N+](=O)[O-])cc1[N+](=O)[O-] (centres undefined)
95.9	Nc1cc(F)c(Sc2ccc(C(F)(F)F)cc2Cl)cc1F
165 to 168	O=C(O)c1ccc(NCc2ccccc2)cc1
137 to 140	O=C(Cn1ccnc1)CS(=O)(=O)c1ccccc1
178 to 180	O=S1(=O)NCN(C2CCCCC2)c2cc(Cl)ccc21
132	O=C(NCC1(c2ccccc2)CCCC1)N1CCC(Sc2ccc(CCNC[C@H](O)COc3ccc(O)cc3)cc2)CC1
162 to 164	O=C1c2cccc(O)c2CC12CCCCC2

melting point [°C]	SMILES
140 to 142	CC(=O)Nc1c(C(=O)c2ccccc2C)[nH]c2cc(Cl)ccc12
178 to 180	COc1cc(N)c(S(C)(=O)=O)cc1C(=O)O
167 to 171	Cc1nccn1-c1ccc(-c2cnc([C@H](Cc3ccccn3)N(C=O)c3cc4ccccc4o3)n2C)cc1
72 to 76	O=C(Nc1ccc(-n2nc(C(F)(F)F)cc2C2CC2)c(F)c1)C1(c2ccccc2)CCC1
97 to 98	COc1cc2c(cc1OC)N(C(=O)C=Cc1ccccc1)CC(N(C)C)C2 (centres undefined)
37 to 39	CC(=NC1CCCCC1)N(C)C=Nc1ccc(C)cc1C
190	CC(C)(c1ccc(O)cc1)c1ccc(O)c(C(C)(C)c2ccc(O)cc2)c1
90 to 95	O=S(=O)(Cl)c1ccc(CCc2ccccc2)cc1
130 to 132	CCc1nc2c(cnn2CC)c(NC2CCOCC2)c1CNC(=O)c1cc(C)cc(C(=O)NCc2cccc(-c3cccc(CC4CCNCC4)c3)c2)c1
85 to 90	O=C(O)CC(Sc1ccccc1)c1ccccc1 (centres undefined)
82	CCCCC(=O)N(Cc1ccc2c(c1)CCc1ccccc1N2CC#N)C(C(=O)O)C(C)C (centres undefined)
101 to 102	COc1ccc(N2C(=O)C3=C(CCCC3)C2CC(=O)N2CCCCC2)cc1 (centres undefined)
303 to 305	Cc1nn(C)c2c(=O)[nH]cnc12
143 to 144	CC(C)(C)c1ccc(S(=O)(=O)Nc2ncnc(Cl)c2Oc2ccccc2)cc1
183 to 184	Cc1ccc(-c2ccc(/C=C/C(=O)O)o2)cc1
169	CC(=O)OC1CSC(Oc2ccc(-c3cnccc3F)nc2-c2cnccc2F)C(OC(C)=O)C1OC(C)=O (centres undefined)
112 to 114	Cc1cnc2c(N)cccc2c1Cl
153 to 154	Cc1oc(-c2ccccc2)nc1COc1ccc(COc2ccccc2CC(=O)O)cc1
191	CCOc1ccc2c(c1)n(C1CCCCC1)c(=O)n2Cc1ccc(N)cc1OC
152 to 154	Cc1ccc(Cl)cc1N1CCCN(C2CCC2)C1=S
224 to 225	COc1ccc(C(=O)Nc2c(Cl)cncc2Cl)c2cc(C(=O)N3CCN(C)CC3)oc12
73 to 74	CCn1nc(OCCCc2ccc(OC(C)C)cc2Oc2ncc(C(F)(F)F)cc2Cl)cc1CCC(=O)O
226 to 228	Nc1ccc2c3c(cccc13)C(=O)N(C1CCN(Cc3ccccc3)CC1)C2=O

SMILES	melting point [°C]
Cn1cncc1C(c1ccc(Cl)cc1)c1ccc2c(c1)C(c1cccc(Cl)c1)SCCC(=O)N2 (centres undefined)	199
CCCC1=NC(=NOC(=O)NC)SC1(C)C	112 to 114
CCOC(=O)CN1C(=O)C(NC(=O)Nc2ccc(Cl)cc2)N=C(c2ccccc2F)c2ccccc21 (centres undefined)	253 to 254
COc1ccc2c(c1)CCC(CN1CCC3(CC1)C(=O)NCN3c1ccccc1)=C2	182 to 193
